Assay results taken from patent US8058243B2, “Method for treating a brain cancer with ifenprodil” (HSC Research and Development Limited Partnership, priority 2006, dated 2011).
Structures can show the parent of a compound that is named as a salt. Where two headings read alike, the source gives them in different places.

System: murine neural precursor cells (neurosphere cultures)
Experiment: HTS of LOPAC library against secondary neurosphere cultures, MTT proliferation assay at 3 μM, day 7 (z score, P value)
Format: cell-based, mouse
[1] = LOPAC primary screen, neurosphere MTT proliferation, 3 μM, day 7
[2] = yes/no: significantly inhibited neurosphere proliferation (P<0.01) in primary screen
[3] = yes = significantly inhibited neurosphere proliferation (P<0.01) in the primary screen
[4] = LOPAC library screen, 3 μM, MTT, secondary neurosphere cultures, day 7
[5] = yes/no: significantly inhibited neurosphere proliferation (P<0.01) in the primary screen
[6] = LOPAC screen, neurosphere MTT proliferation, 3 μM, day 7
[7] = yes/no: significantly inhibited neurosphere proliferation in primary screen
[8] = LOPAC library screen at 3 μM, secondary neurosphere cultures, MTT
[9] = primary LOPAC screen, 3 μM, MTT, neurosphere proliferation
[10] = yes/no: significantly inhibited neurosphere proliferation in the primary screen

`CC[N+](C)(C)c1cccc(O)c1` [Edrophonium chloride] was tested, and the “Z Score” value was −0.8064, the Z score [1] was −0.806 and the Activity [2] was “no”.

In the case of `CCCCCCCCCCCCCCCCOCC(COCC(F)(F)F)OP(=O)(O)OC` (centres unmarked) [MJ33], the “Z Score” value was 1.364, the Z score [1] was 1.364 and the Activity [3] was “no”.

In the case of `O=C(Nc1ccc([N+](=O)[O-])cc1Cl)c1cc(Cl)ccc1O` [Niclosamide], the “Z Score” value [4] was −2.784, the Z score [1] was −2.784 and the Activity [5] was “yes”.

For `N/C(=N\C(=O)c1nc(Cl)c(N)nc1N)NCc1ccc(Cl)c(Cl)c1` [3′,4′-Dichlorobenzamil], the “Z Score” value was −2.581, the Z score [1] was −2.581 and the Activity [5] was “yes”.

In the case of `C[C@](N)(CCP(=O)(O)O)C(=O)O.Cl` [(S)-MAP4 hydrochloride], the “Z Score” value was −0.5525, the Z score [1] was −0.553 and the Activity [3] was “no”.

With `C[C@@]12C(=O)OC(=O)[C@]1(C)[C@H]1CC[C@@H]2O1` [Cantharidin] the “Z Score” value was −0.5781, the Z score [6] was −0.578 and the Activity [2] was “no”.

In the case of `COc1cc(C(O)CN)ccc1O.Cl` (centres unmarked) [(B1)-Normetanephrine hydrochloride], the “Z Score” value [4] was −1.796.

With `CCCCCCCCCCCCCCCC(=O)NCC(COP(=O)([O-])OCC[N+](C)(C)C)OCC` (racemic) [rac-2-Ethoxy-3-hexadecanamido-1-propylphosphocholine] the “Z Score” value (168 h, 3 µM) was −1.269, the Z score (168 h, 3 µM) was −1.269 and the Activity [2] was “no”.

With `CN/C(=N/CCSCc1nc[nH]c1C)NC#N` [Cimetidine] the “Z Score” value (LOPAC library screen at 3 μM, MTT, secondary neurosphere cultures, screened in singlets) was 1.665, the Z score [6] was 1.665 and the Activity [2] was “no”.

For `CN(C)CCCCSC(=N)N.Cl.Cl` [SKF 91488 dihydrochloride], the “Z Score” value was −0.766, the Z score [1] was −0.766 and the Activity [7] was “no”.

For `Cl.NC1CCN(c2cccc(Cl)n2)CC1` [SR 57227A], the “Z Score” value was −1.4, the Z score [1] was −1.400 and the Activity [7] was “no”.

In the case of `NCCS` [Cysteamine hydrochloride], the “Z Score” value [8] was −0.5989, the Z score [1] was −0.599 and the Activity [3] was “no”.

`O=[N+]([O-])c1ccc(CSc2ncnc3c2ncn3[C@@H]2O[C@H](CO)[C@@H](O)[C@H]2O)cc1` [S-(4-Nitrobenzyl)-6-thioinosine] was tested, and the “Z Score” value (168 h, 3 µM) was −0.4271, the Z score (168 h, 3 µM) was −0.427 and the Activity [3] was “no”.

For `NCC(CC(=O)O)c1ccc(Cl)cc1` (centres unmarked) [(B1)-Baclofen], the “Z Score” value was −1.069.

With `N.S=C(S)N1CCCC1` [Ammonium pyrrolidinedithiocarbamate] the Activity was “no”, the “Z Score” value [8] was −0.4168 and the Z score [1] was −0.417.

In the case of `Cl.NCCC[C@](N)(C(=O)O)C(F)F` (racemic), the “Z Score” value [8] was −0.4244, the Z score [6] was −0.424 and the Activity [2] was “no”.

With `NS(=O)(=O)c1cc2c(cc1Cl)NCNS2(=O)=O` [Hydrochlorothiazide] the “Z Score” value [8] was −0.212, the Z score [1] was −0.212 and the Activity [2] was “no”.

With `Cl.Cl.NCCNS(=O)(=O)c1cccc2cnccc12` [H-9 dihydrochloride] the “Z Score” value was −0.1899, the Z score [9] was −0.190 and the Activity [10] was “no”.

With R(−)-Me5 the “Z Score” value was −1.414, the Z score [1] was −1.414 and the Activity [3] was “no”.

`O=P1(N(CCCl)CCCl)NCCCO1` (centres unmarked) [Cyclophosphamide monohydrate] was tested, and the Activity was “no”, the “Z Score” value was −0.9758 and the Z score was −0.976.

In the case of `NC(=S)c1ccc[n+]([C@@H]2O[C@@H](COP(=O)([O-])OP(=O)(O)OC[C@H]3O[C@@H](n4cnc5c(N)ncnc54)C(OP(=O)([O-])O)[C@H]3O)C(O)C2O)c1.[Na+]` (some centres unmarked) [Thio-NADP sodium], the “Z Score” value was 0.3661, the Z score [9] was 0.366 and the Activity [10] was “no”.

For `Cc1nccc2c1[nH]c1ccccc12` [Harmane], the “Z Score” value was −1.403 and the Z score [1] was −1.403.

With `CC(COc1ccc(/C=C/c2ccccc2)cc1)[N+](C)(C)C.[I-]` (centres unmarked) the “Z Score” value was −11.13.

In the case of `COc1ccccc1NC(=O)Nc1nc(-c2cccnc2)nc2ccccc12` [VUF 5574], the “Z Score” value was 0.5811, the Z score [9] was 0.581 and the Activity [10] was “no”.
